The target in experiment [1] is T1, adenine binding GPCR (Rattus norvegicus, UniProt Q7TN49).
T1 construct: The full length reading frame was inserted into the mammalian expression vector pcDNA3; expressed in transfected cells; host or cells: HEK293 cells stably transfected with pLEC/Gqi or pLEC/Gqo
T1 sequence (Q7TN49 1-304): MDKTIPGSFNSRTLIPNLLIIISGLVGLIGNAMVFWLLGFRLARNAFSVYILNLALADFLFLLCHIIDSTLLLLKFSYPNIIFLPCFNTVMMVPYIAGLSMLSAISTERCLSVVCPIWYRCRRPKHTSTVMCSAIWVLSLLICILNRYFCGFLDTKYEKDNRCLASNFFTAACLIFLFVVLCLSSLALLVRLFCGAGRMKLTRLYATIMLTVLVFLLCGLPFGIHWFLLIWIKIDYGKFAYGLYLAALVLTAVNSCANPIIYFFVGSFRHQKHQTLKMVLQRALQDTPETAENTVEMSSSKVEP
The experiment is described as follows: FLIPR Ca2+ transient assay, antagonism of 30 nM adenine challenge. Format: cell-based. Conditions: 15 minutes incubation with compound (30 μM to 30 pM), then challenge with 30 nM adenine. The text has this: The full length reading frame was inserted into the mammalian expression vector pcDNA3 (Invitrogen, Carlsbad, Calif., U.S.A.) and the resulting expression construct was transiently transfected with the FuGENE 6 reagent (Roche Molecular Biochemicals, Mannheim, Germany) into HEK293 cells stably transfected (E. Bender, unpublished) with pLEC/Gqi or pLEC/Gqo (Molecular Devices, Sunnyvale, Calif., U.S.A.). The cells were loaded with Fluo-4 (Molecular Probes, Eugene, Oreg., U.S.A.) according to the recommendations of the supplier.
After a 15 minutes incubation at room temperature, the same cells were challenged with 30 nM adenine, to detect antagonistic properties of molecules added in the first round of superfusion.

Experiment [2] deals with T2, rat adenine binding GPCR (Rattus norvegicus, UniProt Q7TN49).
T2 sequence (Q7TN49 1-304): T1 sequence (Q7TN49 1-304)
The experiment in a line: Intracellular Ca2+ measurements (FLIPR) on permanently transfected CHO cells, clone 28. The arrangement: The full length reading frame was inserted into the mammalian expression vector pcDNA3; expressed in transfected cells. The class given is cell-based. The protocol: Finally, measurements of intracellular Ca^2+ were performed on the best functionally coupled CHO cell line, clone 28. The effect of Na-butyrate pre-treatment was investigated using a dose response curve of adenine.
a) Methods—Two days before the experiment the cells were seeded out in a 96 well plate at a density required for approximately 90% cell confluence at the day of the experiment. Compounds were diluted in calcium buffer (5 mM HEPES/NaOH, pH 7.4, 140 mM NaCl, 1 mM MgCl2, 5 mM KCl, 10 mM glucose, 1.25 mM CaCl2, 2.5 mM probenecid, pH 7.4), twice their final concentrations. For basal values, calcium buffer was applied and for the maximum response, 10 μM ionomycin was used. The growth medium was removed and the cells were loaded in serum-free growth medium supplemented with probenecid (5 mM), the indicator Fluo-3 (2 μM), 20 mM HEPES/NaOH, pH, 7.4 and 0.1% BSA in the incubator at 37° C. After 60 minutes incubation, the cells were washed 3 times with the calcium buffer. 100 μl of the diluted compounds was transferred to the wells and changes in intracellular calcium levels were measured with the FLIPR® (Fluorometric Imaging Plate Reader, Molecular Devices). Each data point was run in duplicate and the peak of the Ca ^2+-transient was considered as the relevant signal. The sigmoid concentration response curves were analyzed using the GraphPad Prism program.

Experiment [3] has as its target T3, adenine binding rat receptor (Rattus norvegicus, UniProt Q7TN49).
T3 construct: expressed in transfected cells; host or cells: CHO cells, transient, lipofectamine PLUS
T3 sequence (Q7TN49 1-304): T1 sequence (Q7TN49 1-304)
The experiment in a line: [35S]GTPγS binding on CHO membranes permanently transfected. The class given is biochemical. The following applies: for % stimulation: above basal. The protocol:
The lipofectamine PLUS method was also used for permanent transfection of CHO cells with slight modifications. One day after the transfection, the medium was replaced with selection medium which was replaced every 2 to 3 days. The cells were grown till colonies appeared (between day 8 and 10) and split to a 175 cm^2 culture flask for further culture and experiments. Monoclonal cell lines were prepared by limited dilution seeding in 96 well plates.
a) Methods—Determination of [^35S ]GTPγS binding to the G-proteins was carried out according to a modified procedure of Lazareno (Methods Mol. Biol., 83:107-116, 1997). These experiments were performed for a first functional evaluation of the receptor on the level of a membrane preparation.
The assay mixture contained 10 and 35 μg of membrane protein for the transfected and wild type CHO cells, respectively.
For testing agonistic activity, 175 μl of diluted membranes was pre-incubated in the buffer described above together with 25 μl of buffer and 25 μl of varying concentrations of the compound in a total volume of 225 μl. After a 20 minute pre-incubation period at 30° C., 25 μl of [^35S]GTPγS was added to a final concentration of 0.25 nM and the assay mixtures were further incubated for 20 minutes at 30° C. Bound and free [^35S]GTPγS were separated by rapid filtration over an UniFilter™-96, GF/B™ under reduced pressure using Filtermate 196 filtration (Packard Company (Netherlands). The amount of bound radioactivity on the filter unit was determined after drying of the filters and scintillant addition (Microscint-O; Packard Company) by liquid scintillation counting.
Basal [^35S]GTPγS binding was measured in absence of compounds. Stimulation by agonist was calculated as the percentage increase above basal levels. The sigmoid agonist concentration-response curves were analyzed by non-linear regression using the GraphPad Prism program. The different concentration points were run in duplicates and the reported data were retrieved from independent experiments.
The first functional characterization of the monoclonal cell lines was performed in [^35S]GTPγS binding experiments. The maximum stimulation of [^35S] GTPγS binding by adenine for each of the 4 selected clones was much higher ([…]) than the that found in the transient transfections confirming the expected better coupling in permanent cell lines (see table 5).

Where [4] appears, read: clone 28, Na-butyrate treated cells.
Setting [5] is: clone 28, non-Na-butyrate treated cells.

The values that follow come from US20030157516A1, “G protein coupled receptor” (priority 2000, published 2003).

Read-outs that look alike come from different tables or passages of the source.

Regarding `Nc1ncnc2c1ncn2[C@@H]1O[C@H](COP(=O)(O)O)[C@@H](O)[C@H]1O` [AMP], in experiment [1], the antagonistic effect result is given as “did not elicit antagonistic effects”.
Turning to `Nc1ncnc2nc[nH]c12` [Adenine, adenine], the EC50 in experiment [2] (setting [4]) was 0.0148 µM; in experiment [2] (setting [5]) it was 0.0724 µM; in experiment [3] (4 selected clones, read-out: mean EC50), 0.062 µM; in experiment [3] (Clone 26 (MP1), read-out: pEC50 (converted)) it was 0.0646 µM; in experiment [3] (Clone 28 (MP9), read-out: pEC50 (converted)) it was 0.049 µM; in experiment [3] (Clone 29 (MP9), read-out: pEC50 (converted)), 0.0794 µM. Further, in experiment [3] (Clone 30 (MP9), read-out: pEC50 (converted)), the EC50 is 0.0575 µM. In addition, in experiment [2] (setting [4]), the “increase in RFU” value is 3 fold. The “increase of the basal relative fluorescence units (RFU)” value in experiment [2] (setting [5]) was 1.25 fold. Besides, the “% stimulation” value is given as 632% in experiment [3] (Clone 26 (MP1)), 657% in experiment [3] (Clone 28 (MP9)), 527% in experiment [3] (Clone 29 (MP9)) and 534% in experiment [3] (Clone 30 (MP9)).
